Measurements from paper PMC7662321, “Andrographolide and Its 14-Aryloxy Analogues Inhibit Zika and Dengue Virus Infection” (Molecules, 2020).

Legend:
[1] = MTT cytotoxicity assay in Vero cells; format: cell-based; conditions: African green monkey, Vero cells (monkey kidney), 24 h post-treatment
Description: (§1) Cytotoxicity of each compound towards cells for four selected cell lines in the range of 1 to 500 µM was evaluated using the MTT (3-(4,5-dimethylthiazol-2-yl)-2,5-diphenyltetrazolium bromide) assay at 24 h post-treatment, in parallel with control and vehicle-treated cells (0.1% dimethyl sulfoxide (DMSO)). The 50% cytotoxic concentration (CC50) values calculated from the dose-response curve (Supplementary Figures S2–S5) are shown in Table 1. Overall, a range of cytotoxicities were seen from the four compounds across the […]. The most cytotoxic combination was ZAD-1 and BHK-21 cells, while the least cytotoxic combination was andrographolide and BHK-21 cells (Table 1).
(§2) A549 cells were cultured in ninety-six-well tissue culture plates under standard conditions until the cells reached 90% confluence. The cell culture medium was removed and then cells were incubated with various concentrations of andrographolide (1–100 μM) diluted in complete medium with FBS prior to being cultured for 24 h under standard conditions before analysis using either the Vybrant MTT Cell proliferation assay kit (V13154, Invitrogen) or the alamarBlue (Thermo Fischer Scientific, Waltham, MA, USA) assay kit according to the manufacturers recommendations. Values were determined from 8 (MTT assay) or 3 (alamarBlue) independent replicates. Negative controls (only media and media with 0.1% DMSO) and positive controls (5% DMSO) were included. To determine cell number, cell cultures were trypsinized by the addition of 0.25% Trypsin/0.1% ethylelediaminetetraacetic acid (EDTA) for 3 min and then cell suspensions were diluted with 0.4% trypan blue solution. Cells were counted using a hemocytometer. Cell morphology was additionally observed under an inverted microscope after 24 h treatment with various concentrations of each compound.
Figu re S3. Cytotoxicity of ZAD -1 (A), ZA D-2 (B), ZA D-3 (C), and andro grapholide (D) to Ve r o (monkey kidney) cells. Ve r o cells were incubated with various concentrations of each compound for 24 hrs followed by MTT cell viability assay. The experiment was undertaken independently in 4 replicates. DMSO at the same concentrations was used as a control. 10% ethanol, PBS, and milli- Q water were used as a positive control of cell death. The bars show mean ± SD. […]

[2] = MTT cytotoxicity assay in HEK293T/17 cells; format: cell-based; conditions: human, HEK293T/17 cells (human embryonic kidney), 24 h post-treatment
Description: as §1, §2
Figu re S5. Cytotoxicity of ZAD -1 (A), ZA D-2 (B), ZA D-3 (C), and andro grapholide (D) to HEK293T/17 (human embryonic kidney) cells.
HEK293T/17 cells were incubated with various concentrations of each compound for 24 hrs followed by MTT cell viability assay. The experiment was undertaken independently in 4 replicates. DMSO at the same concentrations was used as a control.
10% ethanol, PBS, and milli- Q water were used as a positive control of cell death. […]

[3] = MTT cytotoxicity assay in A549 cells; format: cell-based; conditions: human, A549 cells (human lung carcinoma), 24 h post-treatment
Description: as §1, §2
(§3) Figu re S4. Cytotoxicity of ZAD -1 (A), ZA D-2 (B), ZA D-3 (C), and andro grapholide (D) to A549 (human lung carcinoma) cells. A549 cells were incubated with various concentrations of each compound for 24 hrs followed by MTT cell viability assay. The experiment was undertaken independently in 4 replicates.
(§4) DMSO at the same concentrations was used as a control. 10% ethanol, PBS, and milli- Q water were used as a positive control of cell death. The bars show mean ± SD. […]

ZIKV = assay: Percentage of ZIKV infection of A549 cells by flow cytometry; format: cell-based, Zika virus; conditions: A549, MOI 5, 10 and 25 µM, 24 h, vs vehicle
Description: To confirm the effects of andrographolide and the andrographolide analogues on ZIKV infection, A549 cells were infected with ZIKV at MOI of 5 for 2 h, and subsequently treated with the compounds at concentrations of 10 and 25 μM or with vehicle for 24 h. The cells were harvested for determination of the percentage of infection by flow cytometry, while the supernatants were collected for determination of viral titer by standard plaque assay.
HEK293T/17 or A549 cells were cultured in six-well plates under standard conditions until the cells reached 80% confluence. HEK293T/17 cells were infected with DENV 2, while A549 cells were infected with ZIKV Thai strain at MOI 5 for 2 h at 37 °C and 5% CO2 in culture medium without FBS. Mock infection was undertaken in parallel. After the infection period, the medium was removed and replaced with complete medium (including FBS) containing 0.1% DMSO (no treatment control) or the appropriate concentration of each compound and cells were again incubated under standard conditions. At 24 h post-treatment, cells were harvested for determination of effects of compounds on percentage of infection and supernatant was collected for determination of viral productivity. All experiments were undertaken independently in triplicate with duplicate plaque assay.
Mock- or viral-infected cells (with or without compound treatment) were harvested at an appropriate time point then incubated with 10% normal goat serum (NGS; Gibco Invitrogen) in PBS-immunofluorescence assay (IFA) buffer on ice for 30 min. The cells were washed with 800 µL of 1% BSA/PBS-IFA and fixed with 200 µL of 4% paraformaldehyde in PBS-IFA at room temperature in the dark for 20 min. After washing with 800 µL of 1% BSA/PBS-IFA, cells were permeabilized with 200 µL of 0.2% Triton X-100 in PBS-IFA for 10 min at room temperature in the dark. Subsequently, the cells were washed with 800 µL of 1% BSA/PBS-IFA followed by overnight incubation with 50 µL of primary antibody (1:150 dilution of pan-specific anti-dengue virus E protein antibody HB114 for DENV and 1:2 dilution of anti-flavivirus antibody HB112 for ZIKV). After washing twice with 800 µL of 1% BSA/PBS-IFA, the cells were incubated with 50 µL of a goat anti-mouse IgG conjugated with fluorescein isothiocyanate (FITC; KPL, Guilford, UK) diluted 1:40 with 1% BSA/PBS-IFA at room temperature in the dark for 1 h. The cells were washed twice with 800 µL of 1% BSA/PBS-IFA and resuspended in 100 µL of PBS-IFA. The fluorescence signal was analyzed by flow cytometry on a BD FACalibur cytometer (Becton Dickinson, BD Biosciences, San Jose, CA, USA) using CellQuest™ software (Version 6). All experiments were undertaken independently in triplicate. All raw flow cytometry data plots are provided in Supplementary Figures S13–S19.

[4] = MTT cytotoxicity assay in BHK-21 cells; format: cell-based; conditions: hamster, BHK-21 cells (baby hamster kidney), 24 h post-treatment
Description: as §1, §2
as §3, with “S2.” for “S4.”, “BHK- 21 (baby hamster kidney)” for “A549 (human lung carcinoma)”, “BHK- 21” for “A549”
as §4

DENV 2 = assay: Percentage of DENV 2 infection of HEK293T/17 cells by flow cytometry; format: cell-based, dengue virus; conditions: HEK293T/17, MOI 5, 10 µM, 24 h; exception to the significant reduction
Description: The effects of the compounds on DENV-2 infection were evaluated using HEK293T/17 as host cells at MOI of 5. The cells were infected with DENV 2 for 2 h and then the cells were incubated with the compounds at non-cytotoxic (or morphology altering) concentrations of 10 and 25 μM of ZAD-1 and ZAD-3, or 25 and 50 μM of ZAD-2, or 50 and 75 μM of andrographolide or 0.1% DMSO vehicle control. After 24 h of treatment, cells were harvested for determination of the percentage of infection by flow cytometry, while the culture supernatants were collected to determine the viral production.
HEK293T/17 or A549 cells were cultured in six-well plates under standard conditions until the cells reached 80% confluence. HEK293T/17 cells were infected with DENV 2, while A549 cells were infected with ZIKV Thai strain at MOI 5 for 2 h at 37 °C and 5% CO2 in culture medium without FBS. Mock infection was undertaken in parallel. […]
Mock- or viral-infected cells (with or without compound treatment) were harvested at an appropriate time point then incubated with 10% normal goat serum (NGS; Gibco Invitrogen) in PBS-immunofluorescence assay (IFA) buffer on ice for 30 min. […] The fluorescence signal was analyzed by flow cytometry on a BD FACalibur cytometer (Becton Dickinson, BD Biosciences, San Jose, CA, USA) using CellQuest™ software (Version 6). […]

Row | SMILES | CC50 at 24 h [1] [µM] | CC50 at 24 h [2] [µM] | CC50 at 24 h [3] [µM] | number of ZIKV-infected cells (percentage of infection) (ZIKV) | CC50 at 24 h [4] [µM] | percentage of DENV 2 infection (DENV 2)
1 | C=C1CC[C@@H]2[C@](C)(CO)[C@H](O)CC[C@@]2(C)[C@@H]1C/C=C1/C(=O)OC[C@@H]1Oc1ccc([N+](=O)[O-])cc1OC [ZAD-2] | 179 ± 13 | 197 ± 7 | 194 ± 17 | no significant effects | 218 ± 16 | –
2 | C=C1CC[C@@H]2[C@](C)(COC(C)=O)[C@H](O)CC[C@@]2(C)[C@@H]1C/C=C1/C(=O)OC[C@H]1Oc1ccc([N+](=O)[O-])cc1OC [ZAD-3] | 186 ± 25 | 201 ± 25 | 190 ± 22 | no significant effects | 175 ± 7 | exception
